Data on 21 molecules can be found in patent US6054460A, “Anticonvulsive and antiallergic/antiasthmatic pyrazolo-[3,4-d]pyrimidines, and process for preparing” (Arzneimittelwerk Dresden GmbH, priority 1998, dated 2000).

Where two headings read alike, the source gives them in different places.

Data set [1] has as its system maximal electroshock. The experiment in a line: Maximal electroshock (MES), anticonvulsive action, mouse i.p. The class given is in vivo. The source says:
(§1) ^3) Mouse i.p.: MES = maximal electroshock, PTZ = s.c. pentetrazole
(§2) ^5) In % of the protected animals; n.t. = not tested
Background: The maximal electroshock test induces tonic seizures with an electrical stimulus.

Data set [2] concerns s.c. pentetrazole. The data set can be described thus: s.c. pentetrazole (PTZ), anticonvulsive action, mouse i.p. The class given is in vivo. As to conditions: ip, read-out: Action, PTZ (protected animals).
From the text: as §1, §2

Data set [3] addresses T1, adenosine receptor (A3) (Homo sapiens, UniProt P0DMS8).
T1 sequence (P0DMS8 1-318): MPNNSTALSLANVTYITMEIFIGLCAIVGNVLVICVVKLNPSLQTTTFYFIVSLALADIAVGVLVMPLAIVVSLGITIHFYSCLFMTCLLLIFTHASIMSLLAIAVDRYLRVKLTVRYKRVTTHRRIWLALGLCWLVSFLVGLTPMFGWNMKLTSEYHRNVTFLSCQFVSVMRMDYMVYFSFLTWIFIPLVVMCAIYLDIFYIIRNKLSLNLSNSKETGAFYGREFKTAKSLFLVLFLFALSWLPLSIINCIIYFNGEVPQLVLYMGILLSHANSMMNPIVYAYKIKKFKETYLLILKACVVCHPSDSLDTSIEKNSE
The data set can be described thus: Binding at the adenosine receptor (A3) and selectivities. Particulars: for Ki: adenosine A3 receptor; for selectivity A3/A1: ratio A3/A1; for selectivity A3/A2: ratio A3/A2.

The nature of data set [4]: Octanol/water partition coefficient.
Data set [5] concerns maximal electroshock. The experiment in a line: Maximal electroshock, anticonvulsive action, rat p.o. Particulars: for ED50: po, maximal electroshock. The class given is in vivo. The source says: Week-blad, Sc. Ed. 14, 132 (1992) and Antiepileptic Drugs, Third Ed., Raven Press, New York 1989.
(§3) Analogous results were obtained for the orally administered tests.

Data set [6] in a line: in vivo. Particulars: rat, po.
From the text: as §3

Data set [7] relates to eosinophilic granulocytes. The experiment in a line: Inhibition of infiltration of eosinophilic granulocytes into the lungs (BAL, ovalbumin-challenged guinea-pigs, oral). It counts as in vivo, guinea-pig (Dunkin Hartley Shoe). As to conditions: guinea-pig, 100 mg/kg, 2 hours before allergen challenge. The protocol: The compounds of the present invention were tested in vivo for antiasthmatic action after oral administration to male guinea-pigs, and the inhibition of the infiltration of the eosinophilic granulocytes into the lungs was determined. Male guinea-pigs (Dunkin Hartley Shoe) weighing 200-250 g were actively sensitized by an s.c. injection of ovalbumin (10 μg+1 mg of aluminum hydroxide) and boosted 2 weeks later. One week after boosting with ovalbumin, the animals were challenged with an aerosol of 0.5% strength ovalbumin solution for 20-30 sec. 24 hours later, a bronchoalveolar lavage (BAL) was carried out in the animals under urethane anaesthesia using 2×5 ml of saline solution. The lavage fluid was collected and centrifuged at 400×g for 10 min and the cell pellets were suspended in 1 ml of saline solution. The eosinophilic granulocytes were counted microscopically in a Neubauer chamber. A Becton Dickinson test kit (No. 5877) for eosinophils was used for staining. The test kit used phloxine B as a selective stain for eosinophils. The eosinophils in the BAL were counted for each animal and the eosinophils were calculated in millions/animal. The test substances were administered orally 2 hours before allergen challenge.
The percentage inhibition of eosinophilia of the group treated with substance is calculated according to the following formula:
(A-C)-(B-C)/(A-C)×100=% inhibition […]

Where [8] appears, read: ip, mouse i.p., 100 mg/kg, read-out: Action, MES (protected animals).
[9] abbreviates: ip, mouse i.p., read-out: Action, MES (protected animals).

Consider `COc1ccc(Cn2cc3c(=O)[nH]cnc3n2)cc1` [Example 12, 2-(4-methoxybenzyl)pyrazolo[3,4-d]pyrimidin-4(5H)-one], for which, in data set [1] (setting [8]), the responders at 100 mg/kg turned out to be 15%. Also, in data set [2] (mouse i.p.), the responders at 300 mg/kg was found to be 40%. In data set [3], the affinity, expressed as Ki, was 9800 nM; the “selectivity A3/A1” value is recorded as 0.5; the “selectivity A3/A2” value is listed as 0.01. For the same molecule, the logP in data set [4] worked out at 0.62.

As to `O=c1[nH]cnc2nn(Cc3c(F)cccc3F)cc12` [Example 8, 2-(2,6-difluorobenzyl)pyrazolo[3,4-d]pyrimidin-4(5H)-one], the responders at 30 mg/kg in data set [1] (setting [9]) turned out to be 100%; in data set [2] (mouse i.p.), 40%. Moreover, the logP in data set [4] came to 0.18.

`O=c1[nH]cnc2nn(Cc3c(Cl)cccc3Cl)cc12` [Example 10, 2-(2,6-dichlorobenzyl)pyrazolo[3,4-d]pyrimidin-4(5H)-one]: the responders at 100 mg/kg in data set [1] (setting [8]) turned out to be 60%. Further, in data set [3], affinity was put at a Ki of 1600 nM, the “selectivity A3/A1” value was 0.02 and the “selectivity A3/A2” value was determined as 0.02. Also, the logP in data set [4] turned out to be 1.16.

Regarding `S=c1[nH]cnc2nn(Cc3ccccc3Br)cc12` [Example 16, 2-(2-bromobenzyl)pyrazolo[3,4-d]pyrimidine-4(5H)-thione], the responders at 100 mg/kg in data set [1] (setting [8]) worked out at 30%. For the same molecule, in data set [3], the Ki was determined as 340 nM, the “selectivity A3/A1” value came out at 0.005 and the “selectivity A3/A2” value is < 0.001. Moreover, the logP in data set [4] is 1.2.

As for `O=c1[nH]cnc2nn(Cc3ccccc3Cl)cc12` [Example 2, 2-(2-chlorobenzyl)pyrazolo[3,4-d]pyrimidin-4(5H)-one], in data set [1] (setting [8]), the responders at 100 mg/kg was found to be 100%. Besides, the responders at 100 mg/kg in data set [2] (mouse i.p., 100 mg/kg) stood at 60%. In data set [5], this molecule registered an ED50 of 32 mg/kg. In data set [6], the TD50 is > 250 mg/kg. Further, in data set [3], affinity was put at a Ki of 2000 nM, the “selectivity A3/A1” value worked out at 0.02 and the “selectivity A3/A2” value was determined as 0.06. Also, in data set [4], the logP is 1.01.

For `Fc1cccc(F)c1Cn1cc2c(=S)[nH]cnc2n1` [Example 19, 2-(2,6-difluorobenzyl)pyrazolo[3,4-d]pyrimidine-4(5H)-thione], in data set [1] (setting [9]), the responders at 30 mg/kg is 100%. Besides, the responders at 100 mg/kg in data set [2] (mouse i.p., 100 mg/kg) came to 60%. Also, the logP in data set [4] was found to be 1.57.

For the molecule `S=c1[nH]cnc2nn(Cc3ccccc3Cl)cc12` [Example 15, 2-(2-chlorobenzyl)pyrazolo[3,4-d]pyrimidine-4(5H)-thione], in data set [1] (setting [8]), the responders at 100 mg/kg amounted to 100%. Also, the responders at 100 mg/kg in data set [2] (mouse i.p., 100 mg/kg) came out at 60%. This molecule returned an ED50 in data set [5] of 12 mg/kg. Further, in data set [5] (qualitative), the “anticonvulsive action, in words” value is recorded as “strongly anticonvulsive”. In data set [6], the TD50 is > 460 mg/kg and the “therapeutic breadth, in words” value was “great therapeutic breadth”. In data set [3], affinity was put at a Ki of 500 nM, the “selectivity A3/A1” value amounted to 0.007 and the “selectivity A3/A2” value is < 0.001. In data set [4], this molecule had a log partition coefficient (logP) of 1.54.

Consider `O=c1[nH]cnc2nn(Cc3ccccc3F)cc12` [Example 1, 2-(2-fluorobenzyl)pyrazolo[3,4-d]pyrimidin-4(5H)-one], for which the responders at 30 mg/kg in data set [1] (setting [9]) came out at 100%. Moreover, the responders at 100 mg/kg in data set [2] (mouse i.p., 100 mg/kg) came out at 100%. In addition, in data set [3], the inhibitory constant (Ki) came to 3200 nM, the “selectivity A3/A1” value is 0.7 and the “selectivity A3/A2” value is 0.01. In data set [4], this molecule displayed a logP of 0.2.

`NC(=O)N1c2ccccc2C=Cc2ccccc21` [Carbamazepine, reference compound]: the responders at 100 mg/kg stood at 100% in data set [1] (setting [8]) and 0% in data set [2] (mouse i.p., 100 mg/kg).

With `O=c1[nH]cnc2nn(Cc3ccccc3C(F)(F)F)cc12` [Example 5, 2-(2-trifluoromethylbenzyl)pyrazolo[3,4-d]pyrimidin-4(5H)-one], the responders at 30 mg/kg in data set [1] (setting [9]) was found to be 100%. In addition, the responders at 30 mg/kg in data set [2] (mouse i.p.) came out at 20%. In data set [3], the Ki was found to be 790 nM, the “selectivity A3/A1” value is reported as 0.002 and the “selectivity A3/A2” value turned out to be 0.007. In data set [4], this molecule came in with a logP of 1.08.

As for `O=c1[nH]cnc2nn(Cc3cccc(C(F)(F)F)c3)cc12` [Example 7, 2-(3-trifluoromethylbenzyl)pyrazolo[3,4-d]pyrimidin-4(5H)-one], the responders at 30 mg/kg in data set [1] (setting [9]) came out at 100%. Also, in data set [2] (mouse i.p., 100 mg/kg), the responders at 100 mg/kg came out at 60%. For the same molecule, in data set [4], the logP turned out to be 1.

Consider `CCCC(CCC)C(=O)O` [Valproate, reference compound], for which the responders at 100 mg/kg in data set [1] (Mus musculus, ip, read-out: Action, MES (protected animals)) was 0%; in data set [2] (Mus musculus), 30%.

Turning to “2-benzyl-pyrazolo-[3,4-d]-pyrimidine [reference compound]”, the “Log P (octanol/water partition coefficient)” value came out at 0.40. In data set [1] (mouse i.p., 100 mg/kg), the “Action, MES (protected animals)” value was 100%.

Regarding `FC(F)(F)c1ccccc1Cn1cc2c(=S)[nH]cnc2n1` [Example 18, 2-(2-trifluoromethylbenzyl)pyrazolo[3,4-d]pyrimidine-4(5H)-thione], the responders at 100 mg/kg in data set [1] (setting [8]) was determined as 100%; in data set [2] (mouse i.p., 100 mg/kg), 80%. Moreover, the lipophilicity (logP) in data set [4] is 1.6.

In the case of `O=c1[nH]cnc2nn(Cc3ccccc3I)cc12` [Example 4, 2-(2-iodobenzyl)pyrazolo[3,4-d]pyrimidin-4(5H)-one], the responders at 300 mg/kg in data set [1] (ip, mouse i.p., 300 mg/kg, read-out: Action, MES (protected animals)) amounted to 100%. In addition, in data set [3], the Ki is 490 nM, the “selectivity A3/A1” value amounted to 0.008 and the “selectivity A3/A2” value was < 0.0005. In data set [4], this molecule showed a logP of 0.74.

Turning to `Cc1ccccc1Cn1cc2c(=O)[nH]cnc2n1` [Example 6, 2-(2-methylbenzyl)pyrazolo[3,4-d]pyrimidin-4(5H)-one], the responders at 30 mg/kg in data set [1] (setting [9]) came to 100%. Also, the responders at 100 mg/kg in data set [2] (mouse i.p., 100 mg/kg) is 20%. For the same molecule, in data set [3], the Ki stood at 4000 nM, the “selectivity A3/A1” value is 0.01 and the “selectivity A3/A2” value worked out at 0.08. Also, in data set [4], the logP amounted to 0.75.

Take `O=c1[nH]cnc2nn(Cc3ccccc3Br)cc12` [Example 3, 2-(2-bromobenzyl)pyrazolo[3,4-d]pyrimidin-4(5H)-one]: the responders at 100 mg/kg in data set [1] (setting [8]) was 100%. The responders at 300 mg/kg in data set [2] (mouse i.p.) is 80%. In data set [7], the “% inhibition of infiltration of eosinophilic granulocytes into the lung” value is reported as 74%. In data set [3], the Ki stood at 430 nM, the “selectivity A3/A1” value was 0.008 and the “selectivity A3/A2” value was 0.005. Also, the logP in data set [4] was 0.56.

Regarding `S=c1[nH]cnc2nn(Cc3ccccc3I)cc12` [Example 17, 2-(2-iodobenzyl)pyrazolo[3,4-d]pyrimidine-4(5H)-thione], the responders at 100 mg/kg in data set [1] (setting [8]) amounted to 30%. In data set [3], the Ki amounted to 500 nM, the “selectivity A3/A1” value was found to be 0.008 and the “selectivity A3/A2” value was < 0.001. Besides, the logP in data set [4] came out at 1.4.

Regarding `O=c1[nH]cnc2nn(Cc3c(F)cccc3Cl)cc12` [Example 9, 2-(2-chloro-6-fluorobenzyl)pyrazolo[3,4-d]pyrimidin-4(5H)-one], the responders at 30 mg/kg in data set [1] (setting [9]) turned out to be 100%. Further, in data set [3], the Ki was found to be 1000 nM, the “selectivity A3/A1” value stood at 0.002 and the “selectivity A3/A2” value came out at 0.004. Also, in data set [4], the logP came out at 0.93.

In the case of `O=c1[nH]cnc2nn(Cc3cc4c(cc3Cl)OCO4)cc12` [Example 13, 2-(2-chloro-4,5-methylenedioxybenzyl)pyrazolo[3,4-d]pyrimidin-4(5H)-one], the responders at 100 mg/kg in data set [1] (setting [8]) was 30%. Moreover, in data set [3], the Ki turned out to be 8300 nM, the “selectivity A3/A1” value came out at 0.4 and the “selectivity A3/A2” value is given as 0.02. In data set [4], the logP came to 1.21.

Take `O=c1[nH]cnc2nn(Cc3ccc(Cl)cc3Cl)cc12` [Example 11, 2-(2,4-dichlorobenzyl)pyrazolo[3,4-d]pyrimidin-4(5H)-one]: the responders at 100 mg/kg in data set [1] (setting [8]) worked out at 100%. Besides, the responders at 100 mg/kg in data set [2] (mouse i.p., 100 mg/kg) was 20%. Also, in data set [3], affinity was put at a Ki of 710 nM, the “selectivity A3/A1” value came to 0.04 and the “selectivity A3/A2” value was 0.01. This molecule returned a logP in data set [4] of 1.68.

For orientation: Ki means the equilibrium dissociation constant of an inhibitor or competing ligand from its target. As usually defined, the logP is a log measure of how a compound divides between an organic and an aqueous phase. Low values mean a more hydrophilic compound, high ones a more lipophilic compound. As usually defined, the ED50 is the midpoint of the dose-response relation. Lower therefore signals an effect at a small dose.
